Laboratory results as given in US4918066A, “Substituted 4-benzylpiperazinyl compounds” (Ciba-Geigy Corporation, priority 1989, dated 1990).
Converted amounts (≈) assume the structure as drawn.

Key:
[1] = tested on: Mycobacterium tuberculosis TB H3 Rv; experiment: Activity against Mycobacterium tuberculosis TB H3 Rv in vitro, MIC (Table 1); assay type: cell-based; settings: TBH3RV, read-out: MIC (minimum inhibitory concentration)
Source text: (a) minimum inhibitory concentration (1 mcg = 1.10^-5 g)

[2] = tested on: Mycobacterium tuberculosis TB H3 Rv; experiment: Activity against Mycobacterium tuberculosis TB H3 Rv, ED50 p.o. (Table 1); assay type: in vivo; settings: TBH3RV, po
[3] = Pharmacokinetics in mice (Table 1); assay type: in vivo; settings: mouse; for Cmax: plasma, read-out: Cmax (maximum concentration in the plasma); for half-life: in vivo, read-out: t/2 (halflife of the elimination) (converted)
[4] = Pharmacokinetics in rats (Table 1); assay type: in vivo; settings: rat; for Cmax: plasma, read-out: Cmax (maximum concentration in the plasma); for half-life: in vivo, read-out: t/2 (halflife of the elimination) (converted)
Source text: (c) Cmax = maximum concentration in the plasma (1 mcg = 1.10^-5

M. kansasii K 367 = experiment: MIC against atypical Mycobacteria, photochromogenic (Table II); assay type: cell-based; settings: Mycobacterium kansasii, K367, read-out: MIC (minimum inhibitory concentration)
Source text: (§1) MIC = minimum inhibitory concentration (1 mcg = 1.10^-5 g)

M. aquae K 1165 = experiment: MIC against atypical Mycobacteria, scotochromogenic (Table II); assay type: cell-based; settings: read-out: MIC (minimum inhibitory concentration)
Source text: as §1

M. scrofulaceum K 1166 = experiment: as above; assay type: cell-based; settings: Mycobacterium scrofulaceum, K1166, read-out: MIC (minimum inhibitory concentration)
Source text: as §1

M. xenopei K 716 = experiment: as above; assay type: cell-based; settings: Mycobacterium xenopi, K716, read-out: MIC (minimum inhibitory concentration)
Source text: as §1

M. avium K 536 = experiment: MIC against atypical Mycobacteria, non-photochromogenic (Table II); assay type: cell-based; settings: Mycobacterium avium, K536, read-out: MIC (minimum inhibitory concentration)
Source text: as §1

M. intracellular K 181 = experiment: as above; assay type: cell-based; settings: read-out: MIC (minimum inhibitory concentration)
Source text: as §1

M. intracellular K 546 = experiment: as above; assay type: cell-based; settings: read-out: MIC (minimum inhibitory concentration)
Source text: as §1

M. intracellular K 550 = experiment: as above; assay type: cell-based; settings: read-out: MIC (minimum inhibitory concentration)
Source text: as §1

M. intracellular K 551 = experiment: as above; assay type: cell-based; settings: read-out: MIC (minimum inhibitory concentration)
Source text: as §1

M. intracellular K 653 = experiment: as above; assay type: cell-based; settings: read-out: MIC (minimum inhibitory concentration)
Source text: as §1

atypical Mycobacteria = experiment: Antimicrobial activity in vitro against atypical Mycobacteria; assay type: cell-based, Mycobacterium; settings: against a number of atypical Mycobacteria; vs rifampicin
Source text: This excellent activity is especially pronounced in group c, i.e. non-photochromogenic micro-organisms, which are among the most dangerous pathogens of AIDS infections.

[5] = Retention time in the organism / long-term activity; assay type: in vivo; settings: for activity in respect of pharmacokinetics: vs known 3-piperazinyl-rifamycins; for retention time in the organism: vs rifampicin or compounds 1 to 4 of U.S. Pat. No. 4,005,077

Structure (SMILES)	MIC [1]	ED50 [2]	Cmax [3]	Cmax [4]	MIC (M. kansasii K 367)	MIC (M. aquae K 1165)	MIC (M. scrofulaceum K 1166)	MIC (M. xenopei K 716)	MIC (M. avium K 536)	MIC (M. intracellular K 181)	MIC (M. intracellular K 546)	MIC (M. intracellular K 550)	MIC (M. intracellular K 551)	MIC (M. intracellular K 653)	half-life [3]	half-life [4]	antimicrobial activity in vitro compared with rifampicin (atypical Mycobacteria)	activity in respect of pharmacokinetics [5]	retention time in the organism [5]
CO[C@H]1/C=C/O[C@@]2(C)Oc3c(C)c(O)c4c(O)c(c(/C=N/N5CCN(C)CC5)c(O)c4c3C2=O)NC(=O)/C(C)=C\C=C\[C@H](C)[C@H](O)[C@@H](C)[C@@H](O)[C@@H](C)[C@H](OC(C)=O)[C@@H]1C [Rifampicin]	0.003 µg/mL (≈ 0.00365 µM)	5.9 mg/kg	2480 ng/mL	1390 ng/mL	0.25 µg/mL (≈ 0.304 µM)	0.25 µg/mL (≈ 0.304 µM)	1 µg/mL (≈ 1.22 µM)	1 µg/mL (≈ 1.22 µM)	64 µg/mL (≈ 77.8 µM)	0.5 µg/mL (≈ 0.608 µM)	16 µg/mL (≈ 19.4 µM)	8 µg/mL (≈ 9.72 µM)	1 µg/mL (≈ 1.22 µM)	2 µg/mL (≈ 2.43 µM)					
COC1C=COC2(C)Oc3c(C)c(O)c4c(O)c(c(N5CCN(Cc6c(C)cc(C)cc6C)CC5)c(O)c4c3C2=O)NC(=O)C(C)=CC=CC(C)C(O)C(C)C(O)C(C)C(OC(C)=O)C1C (stereo not drawn) [A, 3-[4-(2,4,6-trimethylbenzyl)-piperazin-1-yl]-rifamycin SV]	0.003 µg/mL (≈ 0.00328 µM)	4 mg/kg	2950 ng/mL	1510 ng/mL	0.015 µg/mL (≈ 0.0164 µM)	0.03 µg/mL (≈ 0.0328 µM)	0.03 µg/mL (≈ 0.0328 µM)	1 µg/mL (≈ 1.09 µM)	0.5 µg/mL (≈ 0.547 µM)	0.03 µg/mL (≈ 0.0328 µM)	0.125 µg/mL (≈ 0.137 µM)	0.25 µg/mL (≈ 0.273 µM)	0.25 µg/mL (≈ 0.273 µM)	0.125 µg/mL (≈ 0.137 µM)	47.4 h	~450 h	several times greater than the antimicrobial activity exhibited by rifampicin	superior activity in respect of pharmacokinetics	appreciably longer than that of rifampicin or of compounds 1 to 4
COC1C=COC2(C)Oc3c(C)c(O)c4c(O)c(c(N5CCN(Cc6ccccc6C)CC5)c(O)c4c3C2=O)NC(=O)C(C)=CC=CC(C)C(O)C(C)C(O)C(C)C(OC(C)=O)C1C (stereo not drawn) [Compound 1, 3-[4-(o-methylbenzyl)-piperazin-1-yl]-rifamycin SV]	0.001 µg/mL (≈ 0.00113 µM)	1.4 mg/kg	2690 ng/mL	1320 ng/mL											22.9 h	86 h			
C=C(C)CN1CCN(c2c3c(O)c4c(O)c(C)c5c(c4c2O)C(=O)C(C)(OC=CC(OC)C(C)C(OC(C)=O)C(C)C(O)C(C)C(O)C(C)C=CC=C(C)C(=O)N3)O5)CC1 (stereo not drawn) [Compound 6]	0.0003 µg/mL (≈ 0.000359 µM)	1 mg/kg	1400 ng/mL												21 h				
COC1C=COC2(C)Oc3c(C)c(O)c4c(O)c(c(N5CCN(Cc6cccc(C)c6)CC5)c(O)c4c3C2=O)NC(=O)C(C)=CC=CC(C)C(O)C(C)C(O)C(C)C(OC(C)=O)C1C (stereo not drawn) [Compound 2]	0.0003 µg/mL (≈ 0.000339 µM)	1.4 mg/kg	3390 ng/mL												11.9 h				
COC1C=COC2(C)Oc3c(C)c(O)c4c(O)c(c(N5CCN(Cc6ccc(C)cc6)CC5)c(O)c4c3C2=O)NC(=O)C(C)=CC=CC(C)C(O)C(C)C(O)C(C)C(OC(C)=O)C1C (stereo not drawn) [Compound 3, 3-[4-(p-methylbenzyl)-piperazin-1-yl]-rifamycin SV]	0.0001 µg/mL (≈ 0.000113 µM)	1.2 mg/kg	2280 ng/mL												11.5 h				
COC1C=COC2(C)Oc3c(C)c(O)c4c(O)c(c(N5CCN(Cc6ccc(C(C)C)cc6)CC5)c(O)c4c3C2=O)NC(=O)C(C)=CC=CC(C)C(O)C(C)C(O)C(C)C(OC(C)=O)C1C (stereo not drawn) [Compound 4, 3-[4-(p-isopropylbenzyl)-piperazin-1-yl]-rifamycin SV]	0.003 µg/mL (≈ 0.00328 µM)	1.5 mg/kg	1810 ng/mL												20.4 h				
COC1C=COC2(C)Oc3c(C)c(O)c4c(O)c(c(N5CCN(CC(C)C)CC5)c(O)c4c3C2=O)NC(=O)C(C)=CC=CC(C)C(O)C(C)C(O)C(C)C(OC(C)=O)C1C (stereo not drawn) [Compound 5, 3-(4-isobutylpiperazin-1-yl)-rifamycin SV]	0.0001 µg/mL (≈ 0.000119 µM)	1 mg/kg	1200 ng/mL												12 h				
COC1C=COC2(C)Oc3c(C)c(O)c4c(O)c(c(N5CCN(Cc6cccc7ccccc67)CC5)c(O)c4c3C2=O)NC(=O)C(C)=CC=CC(C)C(O)C(C)C(O)C(C)C(OC(C)=O)C1C (stereo not drawn) [B, 3-[4-(1-naphthylmethyl)-piperazin-1-yl]rifamycin SV]	0.0003 µg/mL (≈ 0.000325 µM)	3 mg/kg	1880 ng/mL	1120 ng/mL	0.015 µg/mL (≈ 0.0163 µM)	0.03 µg/mL (≈ 0.0325 µM)	0.06 µg/mL (≈ 0.0651 µM)	0.5 µg/mL (≈ 0.542 µM)	1 µg/mL (≈ 1.08 µM)	0.125 µg/mL (≈ 0.136 µM)	1 µg/mL (≈ 1.08 µM)	1 µg/mL (≈ 1.08 µM)	1 µg/mL (≈ 1.08 µM)	0.25 µg/mL (≈ 0.271 µM)	48.5 h	111 h	several times greater than the antimicrobial activity exhibited by rifampicin	superior activity in respect of pharmacokinetics	appreciably longer than that of rifampicin or of compounds 1 to 4
